Columns and labels:
Assay type in all cases: physicochemical
[1] = Thermal degradation in aqueous media; conditions: for volatile products formed: aqueous, approximately 80° C. for several hours, or similar way
Procedure: The thermal degradation of an aqueous α-branched perfluoroalkylcarbonyl fluoride and the characterization of the products produced from the degradation were carried out using the following procedure. […] 5.7 g of volatile degradation products were then collected by azeotropic distillation using a Dean-Stark apparatus.
The thermal degradation of C7 F15 CF(CF3)COF (from Example A4) dispersed in water was also carried out by heating the aqueous mixture for several hours at approximately 80° C.

[2] = Thermogravimetric analysis of neat perfluorocarboxylate salts; conditions: neat salt, nitrogen, 10° C./min
Description: Thermal degradation measurements were made on a series of neat perfluorocarboxylate salts, including several α-branched open chain structures (Examples N2-N9), a primarily linear open chain structure (Example N10-Fluorad™ FC-143 Fluorochemical Surfactant, commercially available from 3M Company, St. Paul, Minn.), and a closed chain (i.e., cyclic) structure (Example N11--made by the electrochemical fluorination of benzoic acid and hydrolysis in the presence of KOH, as described in U.S. Pat. No. 2,567,011 (Diesslin et al.)).
The perfluorocarboxylate salts were tested using a Perkin-Elmer TGA 7 thermogravimetric analysis apparatus and a salt sample size of approximately 5 mg, a heating rate of 10° C./min, and a nitrogen gas flow rate of 40-45 mL/min. Using the TGA 7 software, the following temperatures were recorded: (1) the onset temperature of decomposition, (2) the temperature at which 50% of the sample weight was lost, and (3) the temperature at which 90% of the sample weight was lost.

[3] = Surface tension and critical micelle concentration of aqueous surfactant solutions; conditions: Table 5, deionized water; for Surf. Tens.: at the CMC
Procedure: Critical Micelle Concentration (CMC): The critical micelle concentration is defined as the concentration at which further surface tension is no longer lowered with increasing levels of surfactant. To determine CMC, surface tension is measured as a function of surfactant concentration using a K-12 Processor Tensiometer in conjunction with a 665 Dosimat automatic surfactant injection device (also commercially available from Kruss GmbH). Surface tension is then plotted vs. log concentration and the data points are connected. The resulting curve has a nearly horizontal flat portion at concentrations above the CMC and has a negative steep slope at concentrations below the CMC. The CMC is defined as the lowest surfactant concentration in the horizontal flat portion of the curve.
(§1) Then the critical micelle concentration (CMC) was determined for each surfactant.
as §1

Compound: O=C(F)C(F)(C(F)(F)F)C(F)(F)C(F)(F)C(F)(F)C(F)(F)C(F)(F)C(F)(F)C(F)(F)F (centres unmarked) [Example A4, C7 F15 CF(CF3)COF]
- volatile products formed [1]: The same volatile products were formed as in Example N1
- volatile degradation products collected ([1]; from 8 g, refluxed in deionized water 2 hours): 5.7 g
- monohydride in volatile degradation products ([1]; in water): 85%
- olefin in volatile degradation products ([1]; in water): 15%

Compound: O=C(O)C(F)(C(F)(F)F)C(F)(F)C(F)(F)C(F)(F)C(F)(F)C(F)(F)C(F)(F)C(F)(F)F (centres unmarked) [Example M1, C7 F15 CF(CF3)COOH]
- volatile products formed [1]: the same monohydride and olefin

Compound: O=C(O)C(F)(C(F)(F)F)C(F)(F)C(F)(F)C(F)(F)C(F)(F)C(F)(F)C(F)(F)C(F)(F)C(F)(F)F (centres unmarked) [Example M17, C8 F17 CF(CF3)COO^- H4 N^+]
- Temperature for: 50% loss [2]: 162 °C
- Temperature for: 90% loss [2]: 184 °C
- Temperature for: Onset [2]: 142 °C
- Surf. Tens. [3]: 14.7 dynes/cm
- CMC [3]: 2300 ppm

Compound: O=C(O)C(F)(C(F)(F)F)C(F)(F)C(F)(F)C(F)(F)C(F)(F)C(F)(F)C(F)(F)C(F)(F)C(F)(F)C(F)(F)C(F)(F)F (centres unmarked) [Example M18, C10 F21 CF(CF3)COO^- H4 N^+]
- Temperature for: 50% loss [2]: 181 °C
- Temperature for: 90% loss [2]: 188 °C
- Temperature for: Onset [2]: 164 °C
- Surf. Tens. [3]: 14.8 dynes/cm
- CMC [3]: 600 ppm

Compound: O=C(O)C(F)(C(F)(F)F)C(F)(F)C(F)(F)C(F)(F)C(F)(F)C(F)(F)F (centres unmarked) [Example M21, C5 F11 CF(CF3)COO^- K^+]
- Temperature for: 50% loss ([2]; listed as N9): 178 °C
- Temperature for: 90% loss ([2]; listed as N9): 188 °C
- Temperature for: Onset ([2]; listed as N9): 167 °C
- Surf. Tens. [3]: 22.5 dynes/cm
- CMC [3]: > 10000 ppm

— patent publication US5998521A, “Aqueous fluoropolymer compositions and method of preparing the same” (3M Innovative Properties Company, priority 1996, dated 1999)
